row,melting point,SMILES
1,132 to 134 °C,"C[C@@H]1N=C(c2cnc3c(F)cccc3c2)c2cccc(Br)c2[C@H]1C (racemic) [E.12, rac-(3S,4R)-5-bromo-1-(8-fluoro-3-quinolyl)-3,4-dimethyl-3,4-dihydroisoquinoline]"
2,140 to 142 °C,"Cc1ccc2c(c1C#N)[C@H](C)[C@H](C)N=C2c1cnc2c(F)c(F)ccc2c1 (racemic) [E.06, rac-(3S,4S)-1-(7,8-difluoro-3-quinolyl)-3,4,6-trimethyl-3,4-dihydroisoquinoline-5-carbonitrile]"
3,100 to 102 °C,"C[C@@H]1N=C(c2cnc3c(F)cccc3c2)c2cccc(Cl)c2[C@@H]1C (racemic) [E.15, rac-(3S,4S)-5-chloro-1-(8-fluoro-3-quinolyl)-3,4-dimethyl-3,4-dihydroisoquinoline]"
4,164 to 166 °C,Cc1ccc2c(c1C#N)[C@H](C)[C@H](C)N=C2c1cnc2c(F)cccc2c1 (racemic)
5,84 to 86 °C,"Cc1ccc2c(c1Cl)[C@H](C)[C@H](C)N=C2c1cnc2c(F)cccc2c1 (racemic) [E.14, rac-(3S,4S)-5-chloro-1-(8-fluoro-3-quinolyl)-3,4,6-trimethyl-3,4-dihydroisoquinoline]"
6,112 to 114 °C,"C[C@@H]1N=C(c2cnc3c(F)cccc3c2)c2cccc(Cl)c2[C@H]1C (racemic) [E.13, rac-(3S,4R)-5-chloro-1-(8-fluoro-3-quinolyl)-3,4-dimethyl-3,4-dihydroisoquinoline]"
7,82 to 84 °C,"Cc1ccc2c(c1Cl)[C@@H](C)[C@H](C)N=C2c1cnc2c(F)cccc2c1 (racemic) [E.09, rac-(3S,4R)-5-chloro-1-(8-fluoro-3-quinolyl)-3,4,6-trimethyl-3,4-dihydroisoquinoline]"

# Source: patent publication US20240300917A1, “MICROBIOCIDAL QUINOLINE/QUINOXALINE ISOQUINOLINE DERIVATIVES” (SYNGENTA CROP PROTECTION AG, priority 2021, published 2024)
